Results reported in US5912258A, “Thiadiazoleamide derivative and anti-ulcer drug” (Shiseido Co., Ltd., priority 1998, dated 1999).

Tests used:
stress ulcer formation = assay: WIS: Restraint and Water Immersion Stress-Induced Ulcer Inhibition Test; type: in vivo, Male Crj:SD or Slc:SD rats; details: rat, 100 mg/kg orally, 7 hours water immersion stress
Procedure: WIS: Restraint and Water Immersion Stress-Induced Ulcer Inhibition Test (i) Meaning The degree of inhibition of the stress ulcer formation is tested. (ii) Method Male Crj:SD or Slc:SD rats (6 to 7-weeek-old) were fasted overnight, but allowed free access to water. Each group has 5 to 8 of these rats. The sample compound was dissolved or suspended in an aqueous solution of 0.3% sodium carboxymethylcellulose or 0.05% Tween 80 and then was orally administered (100 mg/10 ml/kg). To a control group, the vehicle was administered. 10 minutes later, the rats were placed in a stress cage and immersed to the level of xiphoid process in a water bath (21° C.) for 7 hours. At the end of the stress, the rats were sacrificed by inhalation of ether or carbon dioxide. Then, the stomach of each was removed, inflated by injecting 10 ml of 5% formalin neutral buffer solution, and immersed in 1% formalin neutral buffer solution for 30 minutes or more to be fixed. The stomach was incised along the greater curvature and then the length of each erosion in the glandular portion was determined under dissecting microscope. The sum of the length of erosions per stomach was defined as ulcer index (UI). (iii) Judgment Standard […]

[1] = system: histamine-stimulated gastric acid secretion (pylorus-ligated rats); assay: VOL, TAO: Acid Secretion Inhibition Test in vivo; parameters: species or system Male Crj:Donryu rats; details: rat, 100 mg/kg orally, histamine 30 mg/kg s.c.
Procedure: VOL, TAO: Acid Secretion Inhibition Test in vivo
Inhibitory effect on acid secretion in vivo is confirmed.
Male Crj:Donryu rats (7-week-old) were fasted overnight but allowed free access to water. In each group, 8 to 10 of these rats were used under urethane anesthesia (1.25 g/kg). The sample compound dissolved or suspended in an aqueous solution of 0.5% sodium carboxymethylcellulose or 0.05% Tween 80 was orally administered (100 mg/10 ml/kg). 30 minutes later, the abdomen of each was incised and the pylorus was ligated. 30 minutes after the ligation, 30 mg/kg of histamine dissolved in physiological saline was subcutaneously administered and, 3 hours thereafter, the rat was sacrificed with carbon dioxide. Immediately thereafter, each stomach was removed and the gastric contents were collected and each volume was determined. The total acid output was determined by titration of the gastric juice with 0.1N NaOH.
With respect to the gastric juice volume (VOL) and the total acid output (TAO), the effects obtained when 100 mg/kg of the sample compound had been administered were expressed as their respective inhibitory rates (%) as follows:
each inhibitory rate (%) {1-(value in sample group/value in control group)}×100

Slc:ICR mice = system: Slc:ICR mice; parameters: species or system Male Slc:ICR mice; details: mouse, in vivo
Procedure: AT: Single Dose Toxicity Pretest
Male Slc:ICR mice (5-week-old) were used. Each group has 3 to 5 mice and each mouse was fasted, but allowed free access to water, for 4 to 5 hours from 9 a.m. in the test day. Then, 2,000 mg/10 ml/kg of the sample compound dissolved or suspended in an aqueous solution of 0.5% sodium carboxymethylcellulose was orally administered thereto. To a control, only the vehicle was administered. […] The body weight was measured before and after the fasting as well as at the same time everyday. The dead animals were immediately subjected to autopsy and their organs were observed by naked eyes. Also, the living animals were sacrificed with ether or carbon dioxide one week after the administration and then their organs were observed by naked eyes.
The toxicity at the single dose of 2,000 mg/kg of the sample compound was expressed as being classified into 5 levels.
5: Mortality rate is 0%; no toxicity is found at all both in behavior and organs.
4: Mortality rate is 0%; while no toxicity is found in organs, slight toxicity is observed in behavior and body weight increase.
3: While there is a dead animal (though not all the animals are dead), no toxicity is found in organs.
2: Regardless of whether there is a dead animal or not, toxicity is found in organs.
1: All the animals are dead.

[2] = MTT: Cell Damaging and Protecting Effect Test; type: cell-based, male Japanese White rabbit; details: rabbit, gastric mucosa cells, 10^-4 M, smaller value is better, read-out: MTT: cell damaging rate
Source text: MTT: Cell Damaging and Protecting Effect Test
It is confirmed that there is no toxicity in cell level. Those having toxicity in cell level are inappropriate as an anti-ulcer drug.
A male Japanese White rabbit (2.5 to 3 kg) was anesthetized to death by Nembutal™ and, immediately thereafter, its stomach was removed. The greater curvature of the stomach was incised so as to remove the stomach contents therefrom. After the mucosal surface was washed with HBSS (Hank's Balanced Salt Solution), the stomach in ice-cooled HBSS was transferred to a laboratory. Then, after the pyloric antrum was removed, the gastric corpus mucosa was separated by a spatula and then minced into 2 to 3 mm pieces in BME (Basal Medium Eagle). Thereafter, these pieces were shaken at 120 to 130 cycles/minute for 15 minutes at 37° C. in BME 60 ml containing 280 U/ml of dispase and 30 to 50 U/mil of collagenase. Here, the concentration of collagenase was appropriately changed for each lot in view of the state of cells. The pieces were washed twice with EBSS (Earle's Balanced Salt Solution) containing 1 mM of EDTA and then shaken in MEM (Minimum Essential Medium) containing 1 mM of EDTA at 37° C. for 5 minutes. Subsequently, they were shaken in the dispase and collagenase having the same concentrations as those mentioned above for 15 minutes so as to remove the supernatant and then further shaken at 37° C. for 50 to 60 minutes at 120 to 130 cycles/minute. Then, after being washed twice with HBSS, Ham F12 containing 2% of Ultrocer G™ was used to attain the concentration of 1×10^6 cells/ml. Thus formed suspension was dispensed in each well of a 96-well plate by 200 μl. The plate was incubated in the atmosphere composed of 5% CO2 and 95% air at 37° C. for three days so as to attain a confluent state and then subjected to MTT assay.
The sample compound was dissolved in DMSO so as to attain a concentration of 10^-2 M and then diluted with HBSS containing 2% of Ultrocer G™ so as to attain a final concentration of 10^-4 M. To each group, which 8 wells were used for, 10 μl of MTT reagent was added immediately after 100 μl of the medium in each well was exchanged for same volume of the resulting solution of the sample compound. After being incubated in an atmosphere composed of 5% CO2 and 95% air at 37° C. for 4 hours, thus formed solution was centrifuged and then its supernatant was discarded. Subsequently, 100 μl of 100% ethanol was added to the residue so as to dissolve MTT formazan. Then, the absorbance (OD: 570 to 630) was measured by a microplate reader. This method utilizes a phenomenon in which MTT is changed to MTT formazan only by mitochondria of living cells so as to change color.
The cell damaging or cell protecting effect of the sample compound at the final concentration of 10^-4 M was expressed as cell damaging rate (%) as follows:
cell damaging rate (%)={1-(absorbance in sample group/absorbance in control group)}×100
Accordingly, the smaller value is better in the cell damaging rate.

Row | SMILES | WIS: ulcer formation inhibitory rate (stress ulcer formation) [%] | TAO: total acid output inhibitory rate [1] [%] | VOL: gastric juice volume inhibitory rate [1] [%] | AT: toxicity at the single dose (5 levels) (Slc:ICR mice) | cytotoxicity at 4 h, 100 µM [2] [%]
1 | CCSc1nnc(NC(=O)c2ccc(OC/C=C(\C)CCC=C(C)C)cc2)s1 [Example 15, 2-(4-geranyloxybenzoyl)amino-5-ethylthio-1,3,4-thiadiazole] | 43 | 19 | 10 | 5 | 1
2 | CC(C)=CCC/C(C)=C/COc1ccc(C(=O)Nc2nnc(SCc3ccccn3)s2)cc1 [Example 14, 2-(4-geranyloxybenzoyl)amino-5-(2-pyridylmethyl)thio-1,3,4-thiadiazole] | 30 | – | – | 5 | -13
3 | CCN(CC)CCSc1nnc(NC(=O)c2ccc(OC/C=C(\C)CCC=C(C)C)cc2)s1 [Example 10, 2-(4-geranyloxybenzoyl)amino-5-diethylaminoethylthio-1,3,4-thiadiazole] | 48 | 44 | 36 | 5 | 17
4 | CC(C)c1ccc(C(=O)Nc2nnc(SCCN(C(C)C)C(C)C)s2)cc1 [Example 2, 2-(4-isopropylbenzoyl)amino-5-diisopropylaminoethylthio-1,3,4-thiadiazole] | 80 | – | – | 5 | –
5 | CCN(CC)CCSc1nnc(NC(=O)c2ccc(C(C)(C)C)cc2)s1 [Example 4, 2-(4-tert-butylbenzoyl)amino-5-diethylaminoethylthio-1,3,4-thiadiazole] | 79 | – | – | – | 22
6 | CC(C)=CCC/C(C)=C/COc1ccc(C(=O)Nc2nnc(SCCN3CCCCC3)s2)cc1 [Example 12, 2-(4-geranyloxybenzoyl)amino-5-piperidinoethylthio-1,3,4-thiadiazole] | 44 | – | – | 5 | 12
7 | CCN(CC)CCSc1nnc(NC(=O)c2ccc(C(C)C)cc2)s1 [Example 1, 2-(4-isopropylbenzoyl)amino-5-diethylaminoethylthio-1,3,4-thiadiazole] | 83 | – | – | – | 22
